Reference: ChEMBL document CHEMBL6121066, “Structure-Activity Relationship Studies of DNA Methyltransferase 1 Monovalent Degraders” (J Med Chem, 2025)
pIC50: −log10 of the molar value. Active and inactive are the calls of the source. No cut-off for these calls is given here.

Tests used:
[1] = target: DNA (cytosine-5)-methyltransferase 1 (Homo sapiens, UniProt P26358); test: Inhibition of human DNMT1 (350 to 1600 residues) extracted from Escherichia coli BL21 (DE3)-codon plus-RIL cells in presence of SAM and hemimethylated DNA
[2] = target: DNA (cytosine-5)-methyltransferase 3B (Homo sapiens) (UniProt Q9UBC3); test: Inhibition of human full-length DNMT3B using lambda DNA and SAM as substrate at 1 uM by radioisotope-based MT HotSpot assay relative to control
[3] = test system: HCT-116; test: Induction of molecular glue effect mediated DNMT1 degradation in human HCT-116 cells assessed as reduction in DNMT1 protein level at 500 nM measured after 2 hrs by Western blot analysis relative to control; type: cell-based; design: scale not given: the % may be the effect or the level left
[4] = test system: HCT-116; test: Induction of molecular glue effect mediated DNMT1 degradation in human HCT-116 cells assessed as reduction in DNMT1 protein level at 100 nM preincubated with TRAF6 inhibitor C25-140 for 2 hrs followed by compound addition and measured after 24 hrs by Western blot analysis; type: cell-based
[5] = target: T1, Histone-arginine methyltransferase CARM1 (Homo sapiens) (UniProt Q86X55); test: Inhibition of human PRMT4 using histone H3 and SAM as substrate at 1 uM by radioisotope-based MT HotSpot assay relative to control
T1 sequence (whole entry): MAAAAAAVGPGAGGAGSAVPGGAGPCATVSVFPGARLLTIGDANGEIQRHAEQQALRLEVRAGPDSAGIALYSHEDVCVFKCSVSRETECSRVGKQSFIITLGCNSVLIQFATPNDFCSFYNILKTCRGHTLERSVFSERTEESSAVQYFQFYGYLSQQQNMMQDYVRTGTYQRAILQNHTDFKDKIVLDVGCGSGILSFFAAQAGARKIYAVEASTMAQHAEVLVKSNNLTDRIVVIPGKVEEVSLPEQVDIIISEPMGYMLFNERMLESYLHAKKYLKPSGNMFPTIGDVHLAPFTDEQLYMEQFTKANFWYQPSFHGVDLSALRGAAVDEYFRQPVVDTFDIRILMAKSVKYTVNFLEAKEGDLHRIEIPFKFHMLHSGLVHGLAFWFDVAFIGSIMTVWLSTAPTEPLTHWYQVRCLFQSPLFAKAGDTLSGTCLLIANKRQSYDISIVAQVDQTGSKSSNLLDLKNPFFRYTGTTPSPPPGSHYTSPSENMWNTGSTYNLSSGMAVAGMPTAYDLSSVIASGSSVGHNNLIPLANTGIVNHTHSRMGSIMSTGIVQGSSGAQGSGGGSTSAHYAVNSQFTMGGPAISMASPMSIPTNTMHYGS

[6] = test system: HCT-116; test: Induction of molecular glue effect mediated DNMT1 degradation in human HCT-116 cells assessed as reduction in DNMT1 protein level at 100 nM preincubated with TAK-243 for 2 hrs followed by compound addition and measured after 24 hrs by Western blot analysis; type: cell-based
[7] = target: T2, Histone-lysine N-methyltransferase EHMT1 (Homo sapiens) (UniProt Q9H9B1); test: Inhibition of human GLP using Histone H3 and SAM as substrate at 1 uM by radioisotope-based MT HotSpot assay relative to control
T2 sequence (whole entry): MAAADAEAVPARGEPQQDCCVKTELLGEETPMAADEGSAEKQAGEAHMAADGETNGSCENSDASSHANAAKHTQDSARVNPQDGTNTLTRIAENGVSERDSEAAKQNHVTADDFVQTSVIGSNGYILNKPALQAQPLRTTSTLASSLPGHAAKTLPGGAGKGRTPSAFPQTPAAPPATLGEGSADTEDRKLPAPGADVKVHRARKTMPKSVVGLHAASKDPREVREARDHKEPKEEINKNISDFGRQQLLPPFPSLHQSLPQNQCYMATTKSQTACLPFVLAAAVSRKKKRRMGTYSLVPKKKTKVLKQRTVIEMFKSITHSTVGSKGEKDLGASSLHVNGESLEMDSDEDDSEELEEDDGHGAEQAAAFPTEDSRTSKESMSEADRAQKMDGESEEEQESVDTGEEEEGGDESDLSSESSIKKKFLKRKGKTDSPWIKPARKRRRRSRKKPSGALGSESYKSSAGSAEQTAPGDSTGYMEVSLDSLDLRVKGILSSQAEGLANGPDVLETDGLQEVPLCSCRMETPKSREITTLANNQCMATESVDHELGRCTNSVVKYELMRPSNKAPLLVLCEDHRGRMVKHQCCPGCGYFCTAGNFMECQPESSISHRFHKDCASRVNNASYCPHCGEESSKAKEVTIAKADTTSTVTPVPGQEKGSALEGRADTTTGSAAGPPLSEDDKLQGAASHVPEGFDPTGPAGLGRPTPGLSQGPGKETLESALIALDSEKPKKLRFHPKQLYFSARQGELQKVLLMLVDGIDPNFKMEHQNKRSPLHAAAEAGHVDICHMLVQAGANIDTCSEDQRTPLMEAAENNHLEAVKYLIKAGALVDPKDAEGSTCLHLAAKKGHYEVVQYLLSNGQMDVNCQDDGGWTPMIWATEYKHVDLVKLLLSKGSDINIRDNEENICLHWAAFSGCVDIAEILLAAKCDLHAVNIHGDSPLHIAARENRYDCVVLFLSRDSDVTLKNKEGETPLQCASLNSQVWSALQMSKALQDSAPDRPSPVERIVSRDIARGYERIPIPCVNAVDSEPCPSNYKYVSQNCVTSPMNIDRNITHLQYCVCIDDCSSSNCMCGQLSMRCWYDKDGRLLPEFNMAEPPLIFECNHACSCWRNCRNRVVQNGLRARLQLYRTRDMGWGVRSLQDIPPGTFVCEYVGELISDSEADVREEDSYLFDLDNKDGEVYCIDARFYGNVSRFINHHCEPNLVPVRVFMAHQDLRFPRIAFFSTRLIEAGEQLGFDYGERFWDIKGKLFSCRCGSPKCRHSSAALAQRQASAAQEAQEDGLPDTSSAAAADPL

[8] = test system: HCT-116; test: Downregulation of DNMT1 protein level in human HCT-116 cells at 1 uM incubated for 12 hrs by MS-based global proteomic analysis; type: functional, cell-based
[9] = test system: NCI-H1299; test: Induction of molecular glue effect mediated DNMT1 degradation in human NCI-H1299 cells assessed as reduction in DNMT1 protein level at 100 nM preincubated with MLN4924 for 2 hrs followed by compound addition and measured after 24 hrs by Western blot analysis; type: cell-based
[10] = Induction of molecular glue effect mediated DNMT1 degradation in human MDA-MB-468 cells assessed as reduction in DNMT1 protein level incubated for 24 hrs by Western blot analysis; type: cell-based; conditions: MDA-MB-468, 24 h

Sequence of DNA (cytosine-5)-methyltransferase 1 (P26358 whole entry, the tested form may be a part): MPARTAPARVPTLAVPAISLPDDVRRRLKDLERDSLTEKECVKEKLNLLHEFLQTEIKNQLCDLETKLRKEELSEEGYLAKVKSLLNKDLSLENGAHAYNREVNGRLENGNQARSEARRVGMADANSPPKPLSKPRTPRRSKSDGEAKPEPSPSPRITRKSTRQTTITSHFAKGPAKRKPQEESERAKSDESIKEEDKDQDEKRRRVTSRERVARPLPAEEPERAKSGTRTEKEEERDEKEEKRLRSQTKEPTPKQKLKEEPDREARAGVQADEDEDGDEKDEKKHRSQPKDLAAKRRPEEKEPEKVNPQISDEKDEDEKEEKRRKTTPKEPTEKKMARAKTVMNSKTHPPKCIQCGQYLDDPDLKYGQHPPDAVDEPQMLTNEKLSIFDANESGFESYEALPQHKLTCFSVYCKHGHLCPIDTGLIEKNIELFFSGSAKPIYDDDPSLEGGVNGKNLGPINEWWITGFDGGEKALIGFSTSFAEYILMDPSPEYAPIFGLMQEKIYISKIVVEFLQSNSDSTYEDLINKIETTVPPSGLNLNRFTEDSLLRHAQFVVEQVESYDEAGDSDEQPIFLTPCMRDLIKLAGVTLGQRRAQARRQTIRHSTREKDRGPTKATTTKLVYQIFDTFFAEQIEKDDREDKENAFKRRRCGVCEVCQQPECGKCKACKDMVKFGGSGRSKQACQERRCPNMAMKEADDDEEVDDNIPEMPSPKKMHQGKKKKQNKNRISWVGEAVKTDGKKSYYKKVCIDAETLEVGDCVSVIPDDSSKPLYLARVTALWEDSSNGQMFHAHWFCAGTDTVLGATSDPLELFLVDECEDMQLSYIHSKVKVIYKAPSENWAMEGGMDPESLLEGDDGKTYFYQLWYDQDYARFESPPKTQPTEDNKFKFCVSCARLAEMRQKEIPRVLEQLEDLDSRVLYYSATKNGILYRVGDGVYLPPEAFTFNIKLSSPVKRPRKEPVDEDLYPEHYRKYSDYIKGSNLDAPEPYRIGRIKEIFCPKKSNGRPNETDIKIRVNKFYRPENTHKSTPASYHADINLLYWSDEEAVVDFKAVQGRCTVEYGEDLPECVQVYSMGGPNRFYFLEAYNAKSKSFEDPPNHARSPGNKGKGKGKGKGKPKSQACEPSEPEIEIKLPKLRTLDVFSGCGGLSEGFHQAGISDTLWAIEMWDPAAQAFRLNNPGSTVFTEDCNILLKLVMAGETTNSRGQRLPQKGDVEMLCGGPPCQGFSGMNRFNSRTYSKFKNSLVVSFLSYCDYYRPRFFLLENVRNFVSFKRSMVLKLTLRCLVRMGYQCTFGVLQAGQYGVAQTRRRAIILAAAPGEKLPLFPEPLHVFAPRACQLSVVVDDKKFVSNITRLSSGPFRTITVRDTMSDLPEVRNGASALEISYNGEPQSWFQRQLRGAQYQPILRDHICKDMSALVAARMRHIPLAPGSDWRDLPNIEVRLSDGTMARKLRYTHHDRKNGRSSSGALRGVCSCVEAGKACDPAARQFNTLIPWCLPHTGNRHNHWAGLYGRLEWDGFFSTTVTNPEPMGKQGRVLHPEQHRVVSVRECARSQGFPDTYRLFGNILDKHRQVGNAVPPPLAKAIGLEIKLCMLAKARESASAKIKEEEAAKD

pIC50 [1]: 6.37
inhibition [2]: < 20%
inhibition [5]: < 20%
inhibition [7]: < 20%
DC50 [10]: 254 nM
Compound: CCc1c(C#N)c(SC(C(N)=O)c2ccccc2)nc(N(C)CC(=O)NC)c1C#N (stereo not given)
Activity [3]: 50%
Activity [4]: Active
Activity [6]: inactive
Activity [8]: Active
Activity [9]: Active
